Laboratory results: ChEMBL document CHEMBL2074226, “Molecular evidence of organic ion transporters in the rat adrenal cortex with adrenocorticotropin-regulated zonal expression” (Endocrinology, 2003)

Target: T1, Solute carrier family 22 member 6 (Rattus norvegicus, UniProt O35956)
T1 sequence (O35956 whole entry): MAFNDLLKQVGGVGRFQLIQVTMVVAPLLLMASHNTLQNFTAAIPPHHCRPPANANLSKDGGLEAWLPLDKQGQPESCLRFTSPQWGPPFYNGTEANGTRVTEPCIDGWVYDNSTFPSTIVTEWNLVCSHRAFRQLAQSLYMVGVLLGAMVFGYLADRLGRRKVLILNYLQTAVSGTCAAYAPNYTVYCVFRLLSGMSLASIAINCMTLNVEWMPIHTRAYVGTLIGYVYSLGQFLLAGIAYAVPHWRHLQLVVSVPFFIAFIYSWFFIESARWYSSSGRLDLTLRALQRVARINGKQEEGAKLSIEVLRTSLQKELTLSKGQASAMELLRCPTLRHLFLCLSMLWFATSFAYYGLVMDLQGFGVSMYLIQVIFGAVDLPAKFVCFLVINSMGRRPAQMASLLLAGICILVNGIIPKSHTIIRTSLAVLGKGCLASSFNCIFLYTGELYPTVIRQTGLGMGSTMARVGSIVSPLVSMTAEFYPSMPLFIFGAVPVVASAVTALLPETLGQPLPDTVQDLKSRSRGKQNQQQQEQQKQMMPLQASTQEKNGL
Assay: TP_TRANSPORTER: inhibition of PAH uptake (PAH: 10 uM, Corticosterone: 500 uM) in Xenopus laevis oocytes
Format: functional, cell-based
Details: oocyte

C[C@]12C[C@H](O)[C@H]3[C@@H](CCC4=CC(=O)CC[C@@]43C)[C@@H]1CC[C@@H]2C(=O)CO [CORTICOSTERONE]
Activity: inhibitor [(at a rough estimate) 25 % of control]
